# From ChEMBL document CHEMBL1159010, “Constituents of Azadirachta indica: isolation and structure elucidation of a new antibacterial tetranortriterpenoid, mahmoodin, and a new protolimonoid, naheedin” (1992)
# Assays:
# Format in all cases: functional
# Conditions in all cases: read-out: IZ
# Bacillus subtilis = assay: Antimicrobial activity against Bacillus subtilis at 10 mg
# Shigella sonnei = assay: Antimicrobial activity against Shigella sonnei at 10 mg
# Staphylococcus aureus = assay: Antimicrobial activity against Staphylococcus aureus at 10 mg
# Salmonella = assay: Antimicrobial activity against Salmonella schotmuelleri at 10 mg
# Klebsiella pneumoniae = assay: Antimicrobial activity against Klebsiella pneumoniae at 10 mg
# Enterococcus faecalis = assay: Antimicrobial activity against Streptococcus faecalis at 10 mg
# Streptococcus pyogenes = assay: Antimicrobial activity against Streptococcus pyogenes at 10 mg
# Bacillus cereus = assay: Antimicrobial activity against Bacillus cereus at 10 mg
# Corynebacterium xerosis = assay: Antimicrobial activity against Corynebacterium xerosis at 10 mg
compound,measurement,setting,value
CC(=O)O[C@@H]1C[C@H]2C(C)(C)C(=O)C=C[C@]2(C)[C@H]2CC[C@]3(C)C(=CC(=O)O[C@@]3(OCCO)c3ccoc3)[C@@]21C,zone of inhibition at 10000 µg/disc,Bacillus subtilis,20 mm
same,zone of inhibition at 10000 µg/disc,Shigella sonnei,16 mm
same,zone of inhibition at 10000 µg/disc,Staphylococcus aureus,17 mm
same,zone of inhibition at 10000 µg/disc,Salmonella,20 mm
same,zone of inhibition at 10000 µg/disc,Klebsiella pneumoniae,15 mm
same,zone of inhibition at 10000 µg/disc,Enterococcus faecalis,22 mm
same,zone of inhibition at 10000 µg/disc,Streptococcus pyogenes,28 mm
same,zone of inhibition at 10000 µg/disc,Bacillus cereus,18 mm
same,zone of inhibition at 10000 µg/disc,Corynebacterium xerosis,17 mm
